Key:
Human HDAC9 = target: T1, Human HDAC9 (Homo sapiens, UniProt Q9UKV0); assay: HDAC9 biochemical assay, class IIa-specific substrate; details: read-out: HDAC Isoform IC50 (nM) 9
T1 construct: amino acids 604-1066 with C-terminal His tag; His (C); host or cells: baculovirus expression system
In short: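 HDAC9 residues 604-1066 (C-terminal His tag, baculovirus-expressed) at 0.06 ng/ul with 50 μM class IIa substrate Boc-Lys(trifluoroacetyl)-AMC in Tris-HCl pH 8.0 buffer with BSA and 1% DMSO. 30 min at room temperature, then developer added; fluorescence read at 360/460 nm Ex/Em.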

Human HDAC4 = target: T2, Human HDAC4 (Homo sapiens, UniProt P56524); assay: HDAC4 biochemical assay, class IIa-specific substrate; details: read-out: HDAC Isoform IC50 (nM) 4
T2 construct: amino acids 627-1085 with N-terminal GST tag; GST (N); host or cells: baculovirus expression system
T2 sequence (P56524 627-1084 limits assumed): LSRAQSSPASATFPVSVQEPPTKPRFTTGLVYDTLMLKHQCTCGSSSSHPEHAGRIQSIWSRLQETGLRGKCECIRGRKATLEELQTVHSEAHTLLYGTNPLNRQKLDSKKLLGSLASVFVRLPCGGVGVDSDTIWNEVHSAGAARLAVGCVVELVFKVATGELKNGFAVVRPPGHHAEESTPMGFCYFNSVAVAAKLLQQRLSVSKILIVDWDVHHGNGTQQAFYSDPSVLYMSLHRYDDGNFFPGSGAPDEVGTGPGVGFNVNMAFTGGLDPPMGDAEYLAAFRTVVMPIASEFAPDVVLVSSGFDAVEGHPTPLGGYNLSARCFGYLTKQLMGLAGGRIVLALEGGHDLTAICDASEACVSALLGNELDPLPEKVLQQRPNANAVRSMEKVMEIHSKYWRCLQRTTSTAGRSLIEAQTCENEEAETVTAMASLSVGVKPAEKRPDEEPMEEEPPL
In short: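 Two-step fluorogenic read-out: deacetylated BOC-Lys(trifluoroacetyl)-AMC (50 μM) was digested by developer and measured at Ex/Em 360/460. Deacetylation by 0.004 ng/ul HDAC4 (aa 627-1085, N-terminal GST) ran 30 min at room temperature, pH 8.0 Tris buffer, 1 mg/mL BSA, 1% DMSO.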

Human HDAC1 = target: T3, Human HDAC1 (Homo sapiens, UniProt Q13547); assay: HDAC1 biochemical assay, AMC-labeled peptide substrate; details: read-out: HDAC Isoform IC50 (nM) 1
T3 construct: full length with C-terminal His-tag and C-terminal FLAG-tag; His (C); FLAG (C); host or cells: baculovirus expression system
T3 sequence (Q13547 whole entry, canonical isoform): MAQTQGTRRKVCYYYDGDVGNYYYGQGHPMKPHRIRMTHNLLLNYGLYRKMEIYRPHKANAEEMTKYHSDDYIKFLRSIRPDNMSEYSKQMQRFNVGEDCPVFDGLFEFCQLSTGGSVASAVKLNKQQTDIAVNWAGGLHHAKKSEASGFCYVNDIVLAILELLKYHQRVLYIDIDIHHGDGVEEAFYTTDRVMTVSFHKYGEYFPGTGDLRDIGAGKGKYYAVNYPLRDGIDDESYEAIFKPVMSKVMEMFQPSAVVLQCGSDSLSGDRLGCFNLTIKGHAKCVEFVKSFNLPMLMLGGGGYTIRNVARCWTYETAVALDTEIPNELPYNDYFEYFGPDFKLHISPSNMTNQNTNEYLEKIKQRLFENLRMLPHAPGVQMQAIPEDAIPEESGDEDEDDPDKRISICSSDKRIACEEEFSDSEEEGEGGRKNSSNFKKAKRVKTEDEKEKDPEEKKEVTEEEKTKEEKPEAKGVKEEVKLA
In short: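 Two-step fluorogenic read: HDAC1 deacetylates 50 μM acetyl-lysine AMC peptide RHKK(Ac)AMC for 1 h at 30° C (pH 8.0, 1% DMSO, with compound), then developer digests the product for fluorescence at Ex/Em 360/460. Enzyme is full-length human, His/FLAG-tagged, insect-cell expressed, at 0.3 ng/ul.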

Recombinant human HDAC6 = target: T4, Recombinant human HDAC6 (Homo sapiens, UniProt Q9UBN7); assay: HDAC6 biochemical assay, AMC-labeled peptide substrate; details: HDAC6; read-out: HDAC Isoform IC50 (nM) 6
T4 construct: full length, MW=159 kDa; GST (N); host or cells: Sf9 insect cells (baculovirus)
T4 sequence (Q9UBN7 1-1215): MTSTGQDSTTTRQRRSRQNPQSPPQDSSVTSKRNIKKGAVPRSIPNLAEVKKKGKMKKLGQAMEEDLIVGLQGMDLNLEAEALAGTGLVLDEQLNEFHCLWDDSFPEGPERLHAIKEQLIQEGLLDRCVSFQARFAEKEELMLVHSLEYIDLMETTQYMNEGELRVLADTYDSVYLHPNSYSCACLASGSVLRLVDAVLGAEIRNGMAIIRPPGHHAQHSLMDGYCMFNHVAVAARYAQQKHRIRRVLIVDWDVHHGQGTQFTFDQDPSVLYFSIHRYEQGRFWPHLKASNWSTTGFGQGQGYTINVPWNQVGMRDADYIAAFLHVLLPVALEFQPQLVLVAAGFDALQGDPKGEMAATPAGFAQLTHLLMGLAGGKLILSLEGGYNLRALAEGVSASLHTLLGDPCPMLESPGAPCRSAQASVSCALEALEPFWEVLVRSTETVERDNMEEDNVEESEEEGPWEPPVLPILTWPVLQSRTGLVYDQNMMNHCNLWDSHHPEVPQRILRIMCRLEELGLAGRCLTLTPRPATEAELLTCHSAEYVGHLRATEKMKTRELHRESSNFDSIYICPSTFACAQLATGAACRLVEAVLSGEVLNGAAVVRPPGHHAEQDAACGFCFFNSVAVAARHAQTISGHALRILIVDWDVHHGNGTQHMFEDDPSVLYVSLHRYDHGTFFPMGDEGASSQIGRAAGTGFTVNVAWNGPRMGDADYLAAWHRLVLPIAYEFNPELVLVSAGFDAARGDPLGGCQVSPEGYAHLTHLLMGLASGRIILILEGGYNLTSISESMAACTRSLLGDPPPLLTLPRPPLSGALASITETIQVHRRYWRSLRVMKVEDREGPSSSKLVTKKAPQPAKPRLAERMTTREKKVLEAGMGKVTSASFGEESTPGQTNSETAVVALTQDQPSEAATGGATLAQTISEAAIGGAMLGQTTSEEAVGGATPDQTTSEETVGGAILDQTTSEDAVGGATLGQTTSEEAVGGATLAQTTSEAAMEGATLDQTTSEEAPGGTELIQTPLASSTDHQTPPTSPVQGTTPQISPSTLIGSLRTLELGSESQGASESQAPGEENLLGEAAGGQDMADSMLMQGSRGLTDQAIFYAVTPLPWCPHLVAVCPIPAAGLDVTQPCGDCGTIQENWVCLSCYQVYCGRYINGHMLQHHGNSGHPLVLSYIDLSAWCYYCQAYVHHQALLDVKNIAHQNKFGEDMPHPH
In short: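 Two-step fluorogenic read-out: enzyme deacetylates 50 μM RHKK(Ac)AMC for 1 h at 30° C in pH 8.0 Tris buffer with BSA and 1% DMSO, then developer cleavage gives signal at Ex 360/Em 460. Enzyme: 0.3 ng/ul recombinant full-length human HDAC6, GST-tagged, Sf9-expressed.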

Human HDAC5 = target: T5, Human HDAC5 (Homo sapiens, UniProt Q9UQL6); assay: HDAC5 biochemical assay, class IIa-specific substrate; details: read-out: HDAC Isoform IC50 (nM) 5
T5 construct: full length with C-terminal His tag, MW=51.1 kDa; His (C); host or cells: baculovirus expression system
T5 sequence (Q9UQL6 656-1122 limits assumed): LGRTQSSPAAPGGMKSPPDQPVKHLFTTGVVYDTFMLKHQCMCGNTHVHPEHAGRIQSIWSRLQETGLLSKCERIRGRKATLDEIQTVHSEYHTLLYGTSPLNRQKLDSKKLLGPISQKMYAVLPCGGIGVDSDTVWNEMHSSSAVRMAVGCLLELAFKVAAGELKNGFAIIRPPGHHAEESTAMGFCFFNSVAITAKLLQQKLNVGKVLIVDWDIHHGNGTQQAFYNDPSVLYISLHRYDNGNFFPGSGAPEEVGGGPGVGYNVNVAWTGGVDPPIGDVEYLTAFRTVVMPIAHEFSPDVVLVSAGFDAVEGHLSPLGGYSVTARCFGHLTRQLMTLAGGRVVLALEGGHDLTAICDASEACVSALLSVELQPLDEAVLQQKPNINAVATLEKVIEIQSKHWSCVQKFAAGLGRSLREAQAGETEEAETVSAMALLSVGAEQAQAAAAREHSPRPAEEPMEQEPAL
In short: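 Two-step fluorogenic read-out: deacetylated trifluoroacetyl-lysine AMC substrate (50 μM) digested by developer, measured at Ex/Em 360/460. Deacetylation step: 0.05 ng/ul His-tagged full-length baculoviral enzyme with compound, 30 min, room temperature, pH 8.0 Tris with 1 mg/mL BSA and 1% DMSO.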

Human HDAC7 = target: T6, Human HDAC7 (Homo sapiens, UniProt Q8WUI4); assay: HDAC7 biochemical assay, class IIa-specific substrate; details: read-out: HDAC Isoform IC50 (nM) 7
T6 construct: (a.a. 518-end) with N-terminal GST tag; GST (N); host or cells: baculovirus expression system
T6 sequence (Q8WUI4 518-952 limits assumed): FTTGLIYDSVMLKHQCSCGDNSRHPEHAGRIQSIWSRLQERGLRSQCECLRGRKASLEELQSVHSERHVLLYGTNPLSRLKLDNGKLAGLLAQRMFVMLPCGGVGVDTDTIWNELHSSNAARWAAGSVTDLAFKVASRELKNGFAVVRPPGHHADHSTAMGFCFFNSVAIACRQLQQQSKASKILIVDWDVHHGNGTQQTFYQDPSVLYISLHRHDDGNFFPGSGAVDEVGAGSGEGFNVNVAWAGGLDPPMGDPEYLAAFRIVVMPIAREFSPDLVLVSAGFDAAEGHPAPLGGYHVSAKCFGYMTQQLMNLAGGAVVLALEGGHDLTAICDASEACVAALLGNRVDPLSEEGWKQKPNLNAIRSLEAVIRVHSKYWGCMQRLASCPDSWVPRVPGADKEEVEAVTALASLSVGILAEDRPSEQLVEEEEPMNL
In short: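 Two-step fluorogenic readout: class IIa-selective trifluoroacetyl-lysine AMC substrate (50 μM) deacetylated by N-terminal GST-HDAC7 fragment (0.001 ng/ul), then digested by developer, Ex/Em 360/460. Reaction: 30 min, room temperature, Tris-HCl pH 8.0, NaCl/KCl/MgCl2, 1 mg/mL BSA, 1% DMSO.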

T1 sequence (Q9UKV0 604-1066 isoform Q9UKV0-5): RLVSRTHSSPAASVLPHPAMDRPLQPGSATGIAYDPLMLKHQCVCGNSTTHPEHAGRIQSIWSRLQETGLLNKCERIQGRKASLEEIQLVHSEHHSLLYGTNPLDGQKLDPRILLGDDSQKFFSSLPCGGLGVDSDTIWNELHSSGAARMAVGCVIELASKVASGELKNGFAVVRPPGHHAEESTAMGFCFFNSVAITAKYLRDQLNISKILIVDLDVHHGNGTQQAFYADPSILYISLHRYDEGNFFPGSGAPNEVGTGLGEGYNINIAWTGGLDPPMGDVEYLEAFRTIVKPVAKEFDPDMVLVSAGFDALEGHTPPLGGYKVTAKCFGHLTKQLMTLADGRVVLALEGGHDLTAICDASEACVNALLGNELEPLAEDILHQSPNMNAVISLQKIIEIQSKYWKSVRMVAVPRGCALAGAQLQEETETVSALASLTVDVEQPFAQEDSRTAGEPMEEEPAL

Row | IC50 (Human HDAC9) | IC50 (Human HDAC4) | IC50 (Human HDAC1) | IC50 (Recombinant human HDAC6) | IC50 (Human HDAC5) | IC50 (Human HDAC7) | Compound
1 | ≤ 10000 nM | ≤ 10000 nM | > 10000 nM | ≤ 10000 nM | ≤ 10000 nM | ≤ 10000 nM | CN(C)c1nccc(N(Cc2ccc(-c3noc(C(F)(F)F)n3)s2)c2cnccn2)n1 [Example CC, N2,N2-Dimethyl-N4-(pyrazin-2-yl)-N4-({5-[5-(trifluoromethyl)-1,2,4-oxadiazol-3-yl]thiophen-2-yl}methyl)pyrimidine-2,4-diamine]
2 | ≤ 10000 nM | ≤ 10000 nM | ≤ 10000 nM | ≤ 10000 nM | ≤ 10000 nM | ≤ 10000 nM | CN(C)c1cc(N(Cc2ccc(-c3noc(C(F)(F)F)n3)s2)c2cnccn2)ncn1 [Example CI, N4,N4-Dimethyl-N6-(pyrazin-2-yl)-N6-({5-[5-(trifluoromethyl)-1,2,4-oxadiazol-3-yl]thiophen-2-yl}methyl)pyrimidine-4,6-diamine]
3 | ≤ 10000 nM | ≤ 10000 nM | > 10000 nM | ≤ 10000 nM | ≤ 10000 nM | ≤ 10000 nM | Fc1cnc(N(Cc2ccc(-c3noc(C(F)(F)F)n3)s2)c2cnccn2)nc1 [Example AX, 5-Fluoro-N-(pyrazin-2-yl)-N-({5-[5-(trifluoromethyl)-1,2,4-oxadiazol-3-yl]thiophen-2-yl}methyl)pyrimidin-2-amine]
4 | ≤ 1000 nM | ≤ 500 nM | > 10000 nM | ≤ 1000 nM | ≤ 1000 nM | ≤ 1000 nM | FC(F)(F)c1nc(-c2ccc(CN(c3cnccn3)c3ccc4ccncc4n3)s2)no1 [Example Y, N-(Pyrazin-2-yl)-N-({5-[5-(trifluoromethyl)-1,2,4-oxadiazol-3-yl]thiophen-2-yl}methyl)-1,7-naphthyridin-2-amine]
5 | ≤ 10000 nM | ≤ 10000 nM | > 10000 nM | ≤ 1000 nM | ≤ 1000 nM | ≤ 10000 nM | COCc1nccnc1N(Cc1ccc(-c2noc(C(F)(F)F)n2)s1)c1cnccn1 [Example BG, 3-(Methoxymethyl)-N-(pyrazin-2-yl)-N-({5-[5-(trifluoromethyl)-1,2,4-oxadiazol-3-yl]thiophen-2-yl}methyl)pyrazin-2-amine]
6 | > 10000 nM | > 10000 nM | > 10000 nM | ≤ 10000 nM | ≤ 10000 nM | > 10000 nM | FC(F)(F)c1ccnc(N(Cc2ccc(-c3noc(C(F)(F)F)n3)s2)c2cnccn2)c1 [Example AI, N-({5-[5-(Trifluoromethyl)-1,2,4-oxadiazol-3-yl]thiophen-2-yl}methyl)-N-[4-(trifluoromethyl)pyridin-2-yl]pyrazin-2-amine]

More lines, now with the values behind:

Row | Compound | IC50 (Human HDAC9) | IC50 (Human HDAC4) | IC50 (Human HDAC1) | IC50 (Recombinant human HDAC6) | IC50 (Human HDAC5) | IC50 (Human HDAC7)
7 | FC(F)(F)c1nc(-c2ccc(CN(c3cnccn3)c3ncccc3N3CCOCC3)s2)no1 [Example AN, N-[3-(Morpholin-4-yl)pyridin-2-yl]-N-({5-[5-(trifluoromethyl)-1,2,4-oxadiazol-3-yl]thiophen-2-yl}methyl)pyrazin-2-amine] | ≤ 10000 nM | ≤ 10000 nM | > 10000 nM | ≤ 1000 nM | ≤ 10000 nM | ≤ 10000 nM
8 | FC(F)(F)c1nc(-c2ccc(CN(c3cnc(C4CC4)nc3)c3cnccn3)s2)no1 [Example CU, 2-Cyclopropyl-N-(pyrazin-2-yl)-N-({5-[5-(trifluoromethyl)-1,2,4-oxadiazol-3-yl]thiophen-2-yl}methyl)pyrimidin-5-amine] | ≤ 10000 nM | ≤ 500 nM | > 10000 nM | ≤ 10000 nM | ≤ 1000 nM | ≤ 1000 nM
9 | Cc1cncc(N(Cc2ccc(-c3noc(C(F)(F)F)n3)s2)c2cncc(C)n2)n1 [Example BX, 6-Methyl-N-(6-methylpyrazin-2-yl)-N-({5-[5-(trifluoromethyl)-1,2,4-oxadiazol-3-yl]thiophen-2-yl}methyl)pyrazin-2-amine] | ≤ 10000 nM | > 10000 nM | > 10000 nM | ≤ 10000 nM | ≤ 10000 nM | ≤ 10000 nM
10 | COc1ncc(N(Cc2ccc(-c3noc(C(F)(F)F)n3)s2)c2cnccn2)nc1OC [Example BW, 5,6-Dimethoxy-N-(pyrazin-2-yl)-N-({5-[5-(trifluoromethyl)-1,2,4-oxadiazol-3-yl]thiophen-2-yl}methyl)pyrazin-2-amine] | ≤ 10000 nM | ≤ 10000 nM | > 10000 nM | ≤ 10000 nM | ≤ 10000 nM | ≤ 10000 nM
11 | Cc1cnc(C)c(N(Cc2ccc(-c3noc(C(F)(F)F)n3)s2)c2cnccn2)n1 [Example BU, 3,6-Dimethyl-N-(pyrazin-2-yl)-N-({5-[5-(trifluoromethyl)-1,2,4-oxadiazol-3-yl]thiophen-2-yl}methyl)pyrazin-2-amine] | ≤ 1000 nM | ≤ 500 nM | > 10000 nM | ≤ 10000 nM | ≤ 500 nM | ≤ 1000 nM
12 | COc1ccc2ncnc(N(Cc3ccc(-c4noc(C(F)(F)F)n4)s3)c3cnccn3)c2c1 [Example CN, 6-Methoxy-N-(pyrazin-2-yl)-N-({5-[5-(trifluoromethyl)-1,2,4-oxadiazol-3-yl]thiophen-2-yl}methyl)quinazolin-4-amine] | ≤ 10000 nM | ≤ 10000 nM | > 10000 nM | ≤ 1000 nM | ≤ 1000 nM | ≤ 10000 nM

Source: US20210038607A1, “OXADIAZOLYLTHIOPHENE DERIVATIVES USEFUL AS HISTONE DEACETYLASE INHIBITORS” (Karus Therapeutics Limited, priority 2018, published 2021)
